Data from PubChem BioAssay (NCI).
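Where inhibition never reached the appropriate level, the endpoint shown equals the highest concentration tested. Otherwise, values were interpolated linearly from a five-concentration, 48-hour dose response in 96-well plates. At the TGI there is no net growth.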 Active and inactive are the calls of the source. Rule as the data show it: active = GI50 below about 0.43 µM; inactive = the rest.

Experiments:
Experiment in all cases: inhibition of tumour cell growth, NCI panel, 48 h
[1] = system: T-47D breast
[2] = system: HS 578T breast
[3] = system: HL-60(TB) leukemia
[4] = system: HCT-116 colon
[5] = system: KM12 colon
[6] = system: NCI-H460 lung
[7] = system: MCF7 breast
[8] = system: DU-145 prostate
[9] = system: HOP-62 NSCLC
[10] = system: SN12C renal
[11] = system: OVCAR-3 ovarian
[12] = system: HT29 colon
[13] = system: SR leukemia
[14] = system: RXF 393 renal
[15] = system: BT-549 breast
[16] = system: CAKI-1 renal
[17] = system: PC-3 prostate
[18] = system: SK-MEL-5 melanoma
[19] = system: MALME-3M melanoma
[20] = system: SF-268 CNS
[21] = system: SK-OV-3 ovarian
[22] = system: MDA-MB-435
[23] = system: UO-31 renal
[24] = system: TK-10 renal
[25] = system: MDA-N
[26] = system: SK-MEL-28 melanoma
[27] = system: SW-620 colon
[28] = system: CCRF-CEM leukemia
[29] = system: A549 NSCLC
[30] = system: UACC-62 melanoma
[31] = system: K-562 leukemia
[32] = system: SF-539 CNS
[33] = system: OVCAR-4 ovarian
[34] = system: NCI-H226 lung
[35] = system: HCC-2998 colon
[36] = system: OVCAR-8 ovarian
[37] = system: SNB-75 CNS
[38] = system: MOLT-4 leukemia
[39] = system: EKVX NSCLC
[40] = system: M14 melanoma
[41] = system: ACHN renal
[42] = system: MDA-MB-231 breast
[43] = system: NCI-H522 lung
[44] = system: A498 renal
[45] = system: SNB-19 CNS
[46] = system: COLO 205 colon
[47] = system: U251 CNS
[48] = system: SF-295 CNS
[49] = system: NCI-H23 lung
[50] = system: OVCAR-5 ovarian
[51] = system: 786-0 renal
[52] = system: IGROV1 ovarian
[53] = system: UACC-257 melanoma
[54] = system: HOP-92 NSCLC
[55] = system: SK-MEL-2 melanoma
[56] = system: HCT-15 colon
[57] = system: RPMI-8226 leukemia
[58] = system: NCI/ADR-RES ovarian
[59] = system: LOX IMVI melanoma

Measured: TGI

C[C@]12CC[C@H](O)CC1=CC[C@@H]1C2CC[C@]2(C)c3n[nH]nc3CC12 (stereo partly drawn)
> 100 µM: [1] | [2] | [3] | [4] | [5] | [6] | [7] | [8] | [9] | [10] | [11] | [12] | [14] | [15] | [16] | [17] | [18] | [19] | [20] | [21] | [22] | [23] | [24] | [25] | [26] | [27] | [28] | [29] | [30] | [31] | [32] | [33] | [34] | [35] | [36] | [37] | [38] | [39] | [40] | [41] | [42] | [43] | [44] | [45] | [46] | [47] | [48] | [49] | [50] | [51] | [52] | [53] | [54]
96.4 µM: [13]

Cn1c(C(O)C2(c3cccnc3)SCCCS2)cc2ccccc21 (stereo not drawn)
> 100 µM: [1] | [3] | [55] | [4] | [5] | [6] | [7] | [8] | [9] | [10] | [11] | [12] | [13] | [15] | [16] | [17] | [18] | [19] | [20] | [21] | [22] | [23] | [24] | [25] | [26] | [27] | [28] | [56] | [29] | [30] | [31] | [33] | [34] | [35] | [36] | [37] | [39] | [40] | [41] | [42] | [44] | [45] | [46] | [47] | [57] | [48] | [49] | [50] | [58] | [51] | [52] | [59] | [53] | [54]

N#CC[C@@H](O)COc1ccccc1
> 100 µM: [1] | [2] | [3] | [55] | [4] | [5] | [6] | [7] | [8] | [9] | [10] | [11] | [12] | [13] | [14] | [15] | [16] | [17] | [18] | [19] | [20] | [21] | [22] | [23] | [24] | [25] | [26] | [27] | [28] | [56] | [29] | [30] | [31] | [32] | [33] | [34] | [35] | [36] | [37] | [38] | [39] | [40] | [41] | [42] | [43] | [44] | [45] | [46] | [47] | [57] | [48] | [49] | [50] | [51] | [59] | [53]

C[C@H](N)C(O)C/C=C\CC(O)/C=C/C=C\C/C=C\C/C=C\C/C=C\CCCCCCC(O)[C@H](C)N (stereo partly drawn)
inactive: [1] | [2] | [3] | [55] | [4] | [5] | [6] | [7] | [8] | [9] | [10] | [11] | [12] | [13] | [14] | [15] | [16] | [17] | [19] | [20] | [21] | [22] | [23] | [24] | [25] | [26] | [27] | [28] | [56] | [30] | [31] | [32] | [33] | [34] | [35] | [36] | [37] | [38] | [39] | [40] | [41] | [42] | [43] | [44] | [45] | [46] | [47] | [57] | [48] | [49] | [50] | [51] | [59] | [53]
